# Test results as given in patent US11772041B2, “Composite amine absorbent, and device and method for removing CO2 or H2S, or both of CO2 and H2S” (MITSUBISHI HEAVY INDUSTRIES, LTD., priority 2019, dated 2023).
# Assays:
# [1] = Solubility in water of ether bond-containing compounds; format: physicochemical
# Excerpt: The solubilities in water of the first ether bond-containing compound (propylene glycol monopropyl ether) in Test Example 1, the first ether bond-containing compound (dipropylene glycol monopropyl ether) in Test Example 7, and the ether bond-containing compound of the chemical formula I wherein R^2 has 4 (C4) or more carbon atoms (butylene glycol monobutyl ether) were compared.
# The solubilities in water of the first ether bond-containing compound (propylene glycol monopropyl ether) in Test Example 1, the ether bond-containing compound (dipropylene glycol monopropyl ether) in Test Example 7, and the ether bond-containing compound of the chemical formula I wherein R^3 is an alkyl group (propylene glycol dibutyl ether) were compared.
# [2] = Boiling point of ether bond-containing compounds; conditions: Table 5, Test Example 23; under atmospheric pressure
structure (smiles),measurement,setting,value
"CCCCOCCCCO [Butylene glycol monobutyl ether, butylene glycol monobutyl ether]",Solubility in water (% by weight),"[1]; Table 3, Test Example 21",About 1 % by weight
"CCCCOCC(C)OCCCC (stereo not drawn) [Propylene glycol dibutyl ether, propylene glycol dibutyl ether]",Solubility in water (% by weight),"[1]; Table 4, Test Example 22",Less than 1 % by weight
"COCCOC(C)=O [Ethylene glycol monomethyl ether acetate, ethylene glycol monomethyl ether acetate]",Boiling point (° c.),[2],143 ° c.
